According to patent US11952387B2, “Bicyclic heteroaromatic ring derivative” (priority 2018, dated 2024):

These compounds were tested on HRV14 (assay: Inhibitory activity against human rhinovirus infection and replication (quantitative real-time PCR)). Details: Human rhinovirus sp., MRC5; 100 nmol/L test compound; MRC-5 cells infected with HRV14 at MOI=0.2; 48 hours; viral load normalized to 18s rRNA; read-out: Percent Inhibition.
Format: cell-based
Method: Evaluation of inhibitory activity against human rhinovirus infection and replication (by quantitative real-time PCR)
A required amount of a test compound was weighed off and dissolved in dimethyl sulfoxide (DMSO) to yield a 10 mmol/L stock solution. Next, the stock solution was diluted with a medium for viral infection (minimum essential medium (MEM) supplemented with 2% fetal bovine serum, 5% Tryptose phosphate broth, and 30 mmol/L MgCl2) to prepare 100 nmol/L and 1000 nmol/L of test compound solutions. MRC-5 (human fetal lung fibroblast: ATCC) was suspended at a density of 30000 cells/mL in cell culture medium (MEM supplemented with 10% fetal bovine serum), and 625 μL of the suspension per well was seeded into a 24-well cell culture plate and cultured at 37° C. in 5% CO2. After 72 hours, it was confirmed that the plate had become 80% confluent. The plate was washed with 625 μL of phosphate-buffered physiological saline (Ca/Mg-free; PBS-) once, and 625 μL of the test compound solution prepared just before use was immediately added to the plate. After 30 minutes, the medium was removed followed by addition of 187.5 μL of the test compound solution that had been prepared such that the cells were infected with HRV14 (ATCC) at multiplicity of infection (MOI)=0.2. The cells were then cultured at 35° C. in 5% CO2. After additional 2 hours, 625 μL of the test compound solution prepared just before use was added, and the cells were cultured at 35° C. in 5% CO2. After 48 hours, the cells were washed with 625 μL of PBS- once, and total RNA was extracted from the cells using RNeasy (R) plus kit (Qiagen) according to the manufacturer's instruction. Subsequently, cDNA was synthesized using High-Capacity cDNA Reverse Transcription Kit (Thermo Fisher Scientific). Finally, quantitative real-time PCR was performed in 7500 Fast Real-time PCR system (Life technologies) to measure HRV14 and 18s rRNA. The measurement protocol consisted of the initial denaturation phase at 95° C. for 20 seconds followed by 40 cycles of the denaturation step at 95° C. for 3 seconds and the annealing/elongation step at 60° C. for 30 seconds. The primers used were HRV14 forward primer set forth in SEQ ID NO: 1 and HRV14 reverse primer set forth in SEQ ID NO: 2, and the probe is set forth in SEQ ID NO: 3.
18s rRNA was measured using Eukaryotic 18S rRNA Endogenous Control (Applied Biosystems). According to Equation 1, 18s ribosomal RNA was used as an internal standard to normalize the viral load of HRV14: Viral load of HRV14=The amount of HRV14 in virus-infected cells/the amount of 18s rRNA in virus-infected cells Equation 1
Inhibitory activity of test compounds was calculated as a percent inhibition (%) according to Equation 2: Percent inhibition (%)=[the viral load of HRV in virus-infected cells in the absence of the test compound −the viral load of HRV in virus-infected cells in the presence of the test compound]/[the viral load of HRV in virus-infected cells in the absence of the test compound]×100 Equation 2
The results of using 100 nmol/L test compound solutions were shown in the tables below according to Examples. In the tables, percent inhibition was expressed as follows: percent inhibition >80%: +++, 80%≥percent inhibition >50%: ++, and 50%≥percent inhibition:+.
`COc1ccc(-c2c(C)nc3sc(C(C)(C)O)nn23)cc1S(=O)(=O)N[C@H]1C[C@H](O)C1` [Example 21-8] showed an inhibition at 0.1 µM of 50 to 80%. With `Cc1nc2sc(C(C)C)nn2c1-c1ccc(Cl)c(S(=O)(=O)N[C@H]2CC[C@@H](O)CC2)c1` [Example 1-9] the inhibition at 0.1 µM was greater than 80%. `COc1ccc(-c2c(C)nc3sc(C(O)(C4CC4)C4CC4)nn23)cc1S(=O)(=O)[C@H]1C[C@@H](O)C1` [Example 2-96] gave an inhibition at 0.1 µM greater than 80%. Compound `COc1ncc(-c2c(C)nc3sc(C(C)(C)C(=O)O)nn23)cc1S(=O)(=O)N[C@H]1CC[C@@H](O)CC1` [Example 18-2] has an inhibition at 0.1 µM of no more than 50%. `COc1ccc(-c2c(C)nc3sc(C(C)(C)O)nn23)cc1S(=O)(=O)[C@@H]1CC[C@](C)(O)C1` [Example 2-70] showed an inhibition at 0.1 µM of no more than 50%. Work on `Cc1nc2sc(C(C)(C)O)nn2c1-c1ccc(C(F)(F)F)c(S(=O)(=O)C(C)(C)C(=O)O)c1` [Example 5] yielded an inhibition at 0.1 µM of no more than 50%. Work on `Cc1nc2sc(C(C)(C)O)nn2c1-c1ccc(C(F)(F)F)c(S(=O)(=O)N[C@H]2C[C@@H](O)C2)c1` [Example 2-17] yielded an inhibition at 0.1 µM greater than 80%. `COc1ccc(-c2c(C)nc3sc(C(C)(C)O)nn23)cc1S(=O)(=O)C1CCC(=O)CC1` [Example 13] was tested, and the inhibition at 0.1 µM was no more than 50%. In the case of `Cc1nc2sc(C(O)(C(F)(F)F)C(F)(F)F)cn2c1-c1ccc(Cl)c(S(=O)(=O)N[C@H]2CC[C@@H](O)CC2)c1` [Example 1-11], the inhibition at 0.1 µM is reported as no more than 50%. `COc1ccc(-c2c(C)nc3sc(C(C)(C)O)nn23)cc1S(=O)(=O)Cc1ccc(F)cc1` [Example 2-92] gave an inhibition at 0.1 µM of 50 to 80%. `COc1ccc(-c2c(C)nc3sc(C(C)(C)OC)cn23)cc1S(=O)(=O)Nc1ccc(F)cc1` [Example 1-50] was tested, and the inhibition at 0.1 µM was greater than 80%. In the case of `COc1ccc(-c2c(C)nc3sc(C(O)(C4CC4)C4CC4)nn23)cc1S(=O)(=O)C1CN(C(=O)OC(C)(C)C)C1` [Example 2-84], the inhibition at 0.1 µM is reported as greater than 80%. Compound `Cc1nc2sc(C(C)(C)O)nn2c1-c1ccc(C(F)(F)F)c(S(=O)(=O)N[C@H]2CC[C@H](O)CC2)c1` [Example 1-25] has an inhibition at 0.1 µM greater than 80%. `Cc1nc2sc(C(C)(C)O)nn2c1-c1ccc(C#N)c(S(=O)(=O)N[C@H]2CC[C@H](O)CC2)c1` [Example 2-6] gave an inhibition at 0.1 µM of no more than 50%. `COc1ccc(-c2c(C)nc3sc(C(C)(C)C#N)nn23)cc1S(=O)(=O)N[C@H]1CC[C@@H](O)CC1` [Example 1-20] was tested, and the inhibition at 0.1 µM was greater than 80%. `COc1ncc(-c2c(C)nc3sc(C(C)(C)CO)nn23)cc1S(=O)(=O)N[C@H]1CC[C@@H](O)CC1` [Example 20-2] was tested, and the inhibition at 0.1 µM was no more than 50%. Compound `Cc1nc2sc(C(C)(C)O)nn2c1-c1ccc(C(F)(F)F)c(S(=O)(=O)C2CN(C(N)=O)C2)c1` [Example 11] has an inhibition at 0.1 µM of no more than 50%. In the case of `CC(=O)N1CC(S(=O)(=O)c2cc(-c3c(C)nc4sc(C(C)(C)O)nn34)ccc2C(F)(F)F)C1` [Example 10-1], the inhibition at 0.1 µM is reported as greater than 80%. For `COc1ccc(-c2c(C)nc3sc(C(C)(C)O)nn23)cc1S(=O)(=O)Cc1ccc(C#N)cc1` [Example 2-93], the inhibition at 0.1 µM was 50 to 80%. Compound `Cc1nc2sc(C(C)(C)O)nn2c1-c1ccc(C(F)(F)F)c(S(=O)(=O)CCC(C)(C)O)c1` [Example 2-45] has an inhibition at 0.1 µM of no more than 50%. `Cc1nc2sc(C(C)(C)O)nn2c1-c1ccc(C(F)(F)F)c(S(=O)(=O)NCC2(O)COC2)c1` [Example 2-30] was tested, and the inhibition at 0.1 µM was greater than 80%. In the case of `COc1ccc(-c2c(C)nc3sc(C(C)(C)CO)nn23)cc1S(=O)(=O)N[C@H]1CC[C@@H](O)CC1` [Example 20-1], the inhibition at 0.1 µM is reported as greater than 80%. With `COc1ccc(-c2c(C)nc3sc(C(C)(C)O)nn23)cc1S(=O)(=O)C(C)(C)C(N)=O` [Example 6-1] the inhibition at 0.1 µM was 50 to 80%. For `Cc1nc2sc(C(C)(C)O)nn2c1-c1ccc(C(F)(F)F)c(S(=O)(=O)N[C@]2(C)C[C@H](O)C2)c1` [Example 2-19], the inhibition at 0.1 µM was greater than 80%. Compound `COc1ccc(-c2c(C)nc3sc(C(C)(C)O)nn23)cc1S(=O)(=O)C1CC1` [Example 1-37] has an inhibition at 0.1 µM of 50 to 80%. `COc1ccc(-c2c(C)nc3sc(C4(C#N)CC4)nn23)cc1S(=O)(=O)C1CC1` [Example 1-40] showed an inhibition at 0.1 µM of no more than 50%. `COc1ccc(-c2c(C)nc3sc(C(C)(C)O)nn23)cc1S(=O)(=O)CC1(O)CCC1` [Example 2-63] gave an inhibition at 0.1 µM of no more than 50%.
